SMILES strings stand for the structures.

79 compounds from the METLIN SMRT retention time set (Domingo-Almenara et al. 2019) can be followed below.

A short description of this series: gradient 5% acetonitrile 3 min, to 50% in 2 min, to 85% in 15 min, held 3 min, 100 µL/min. As to conditions: column: Zorbax Extend-C18 2.1 x 50 mm; eluents: water / acetonitrile, 0.1% formic acid. An outline of the steps: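 Standards, all pure, were combined into mixtures of ~100 molecules and run at 100 μL/min on a Zorbax Extend-C18 column (2.1 × 50 mm, 1.8 μm) with water and acetonitrile, each containing 0.1% formic acid. A coupled quadrupole time-of-flight mass spectrometer operated in positive and negative ionization mode. Retention time values come from computationally picked adduct peaks, each inspected manually.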
`CN1CCN(c2nc3ccccc3nc2Cl)CC1` returned an RP-LC retention time of 650 s. The figure for `Cc1cc(C)c(NC(=O)Cn2nc3cc(-c4ccccc4)nc(C)n3c2=O)c(C)c1` is 985 s.

`CC(Oc1ccccc1Cl)C(=O)NCCn1cnc(-c2ccccc2)cc1=O` (centres undefined): the RP-LC retention time was found to be 790 s.

Regarding `CCC(C(=O)N1CCN(c2ccccn2)CC1)n1ccc2cc(S(=O)(=O)N3CCCCC3)ccc21` (centres undefined), the RP-LC retention time is 734 s. The figure for `O=C(NCC(=O)N1CCCc2ccccc21)c1ccccc1Cl` is 835 s; for `CCOc1ccc(NC(=O)Cn2c(=O)c(CCC(=O)NCC(C)C)nc3ccccc32)cc1` it is 824 s; for `Cc1c(-c2noc(C(=O)NCCN(C)C)n2)oc2c(C)cccc12` it is 676 s. The figure for `O=c1c2cc(-c3ccc4c(c3)OCO4)nn2ccn1Cc1nc(-c2cccc(C(F)(F)F)c2)no1` is 1110 s.

`COc1ccc(NC(=O)CCc2cccc3[nH]ccc23)c(C)c1` gave an RP-LC retention time of 805 s. The figure for `Cc1cccc(OCCCC(=O)Nc2nc(-c3ccc(Br)cc3)cs2)c1` is 1260 s; for `Cc1cc(NC(=O)NCCc2c(C)nn(C)c2C)ccc1Br` it is 705 s; for `COc1cc(Cl)ccc1C(=O)N1CCCN(C2CCN(CC3CC3)C2=O)CC1` (centres undefined) it is 574 s. The figure for `CCSc1nnc(NC(=O)c2csc(Nc3cccnc3)n2)s1` is 588 s; for `Cc1ccc(NC(=O)NCC(c2cccnc2)c2c[nH]c3ccccc23)c(C)c1` (centres undefined) it is 683 s; for `CN(Cc1nc2cc(C(=O)N3CCCC3)ccc2n1C)C(=O)Nc1ccc(F)cc1F` it is 607 s. The figure for `CN1CCC(=C2c3ccccc3C(O)c3ccccc32)CC1` (centres undefined) is 665 s; for `O=C(NCCN1CCCCCC1)C(=O)Nc1ccc2nc3n(c(=O)c2c1)CCCCC3` it is 596 s.

Take `CS(=O)(=O)Nc1ccc(C2(C(=O)NCc3cc(F)cc(F)c3)CCCCC2)cc1`: the RP-LC retention time is 916 s. The figure for `CN1C(=O)NC(c2ccc(Cl)cc2)C2=C1CN(c1ccc(C(=O)O)cc1)C2=O` (centres undefined) is 691 s; for `CC(Oc1ccccc1)C(=O)N1CC(c2nc(-c3ccsc3)nn2C)C1` (centres undefined) it is 766 s; for `CS(=O)(=O)NCC1CCC(C(=O)Nc2ccc3c(c2)Cc2ccccc2-3)CC1` (centres undefined) it is 840 s. The figure for `CCOCCCNC(=O)C1=NN(c2ccc(F)cc2)c2ccc(F)cc2S1(=O)=O` is 885 s; for `O=c1c2cc(-c3cccs3)nn2cnn1Cc1nc(-c2ccc3c(c2)OCO3)no1` it is 1020 s.

In turn, `COc1ccc(Br)cc1Cn1nnc(C(=O)NCc2ccco2)c1N` gave an RP-LC retention time of 791 s.

Regarding `COCCCNC(=O)c1c(OCC2CC2)cc(=O)n2c1CCCCC2`, the RP-LC retention time was 611 s. Turning to `Cc1cccc(NC(=O)c2csc(-c3cn(C)c4ncccc34)n2)c1C`, the RP-LC retention time turned out to be 1050 s. `CCCN(CCC)S(=O)(=O)c1cccc(-c2cn3cccc(C)c3n2)c1`: the RP-LC retention time was determined as 774 s.

`CC1=NS(=O)(=O)N(C)C=C1C(=O)OCc1nc(-c2ccc(F)cc2)no1` returned an RP-LC retention time of 952 s. `Cc1ccc(-c2nnc(-c3ccccc3)o2)cc1S(=O)(=O)N1CCOCC1` came in with an RP-LC retention time of 922 s. The figure for `O=C(NCc1ccc2c(c1)OCO2)NCc1ccc2c(c1)OCO2` is 692 s. Compound `O=C(NC1CCCN(c2ccc(=O)[nH]n2)C1)C1(S(=O)(=O)c2ccc(Cl)cc2)CC1` (centres undefined) registered an RP-LC retention time of 712 s. The figure for `CC1(C)CC(=O)C(CC(=O)c2ccccc2)=C(NN=C(N)N)C1` is 666 s. `Cc1ccc(CN2C(=O)COC[C@H]2C(=O)Nc2ccc3c(c2)OCCO3)cc1`: the RP-LC retention time turned out to be 780 s. In turn, `Cc1cccc2c1ncn1c(=O)n(CC(=O)Nc3ccc4c(c3)OCCO4)nc21` gave an RP-LC retention time of 637 s.

For the compound `COC(=O)c1ccc(-c2nc3cnccn3c2Nc2ccc(Cl)cc2)cc1`, the RP-LC retention time came out at 953 s.

On to `CCOc1nccnc1N1CCC(NS(=O)(=O)C2CC2)C1` (centres undefined), for which the RP-LC retention time was 1230 s. The figure for `Cc1ccc2oc(C(=O)NCC(c3ccccc3)N(C)C)cc(=O)c2c1` (centres undefined) is 619 s.

`COc1ccc(CN2CCC(C3CCN(S(C)(=O)=O)CC3)C2)cc1OC` (centres undefined) returned an RP-LC retention time of 580 s.

`CCc1cccc(NC(=O)Nc2ccc3nnc(C)n3c2)c1` showed an RP-LC retention time of 730 s. The figure for `CCc1nc(-c2csc(S(=O)(=O)N3CCCC(C(=O)Nc4ccc(Cl)cn4)C3)c2)no1` (centres undefined) is 1080 s. Consider `CCOc1ccc(NC(=O)Cn2cccc(-c3nc(-c4ccc(Br)cc4)no3)c2=O)cc1`, for which the RP-LC retention time amounted to 1020 s. `Cc1nn(-c2ccc(F)cc2)c2nc(N3CCCC(C(=O)NCc4ccccc4Cl)C3)sc12` (centres undefined) came in with an RP-LC retention time of 1190 s. The figure for `CCOC(=O)c1c(S(=O)(=O)N2CCC(C(=O)NCc3ccc(OC)cc3)CC2)c(C)n(C)c1C` is 793 s; for `O=C(CN1CCN(Cc2ccc(F)cc2)C(=O)C1=O)N1CCN(c2ccccc2F)CC1` it is 778 s; for `CC(=O)c1ccc(NS(=O)(=O)c2ccc(-c3c(C)noc3C)cc2)cc1` it is 813 s. The figure for `Cc1nc(CC(=O)Nc2ccc(F)c(Cl)c2)sc1C(=O)NC1CC1` is 759 s.

Compound `CCn1nc(C)c(CCNC(=O)C2CCCN(c3nn4c(=O)c5c(nc4s3)CCCC5)C2)c1C` (centres undefined) showed an RP-LC retention time of 634 s. The figure for `Cc1ccc(N2CCC(NC(=O)c3cccc(N(C)C)c3)C2=O)cc1` (centres undefined) is 931 s; for `CCS(=O)(=O)c1nc2ccc(NS(=O)(=O)c3cc(C)cc(C)c3)cc2s1` it is 936 s; for `CCC(=O)Nc1cccc(-c2noc(C3CCN(C(=O)CCc4c[nH]c5ccccc45)CC3)n2)c1` it is 869 s. The figure for `CC(C)c1ccc(NC(=O)CN2C(=O)C3CCCCN3c3ccc(C(=O)N4CCOCC4)cc32)cc1` (centres undefined) is 909 s; for `O=C(CCSc1ccc(F)cc1)Nc1nc2c(s1)CCC2` it is 878 s; for `O=C(Cc1ccccc1Cl)NCCCn1cccc1` it is 773 s. The figure for `CC1CCCCN1c1nc(-c2ccc([N+](=O)[O-])cc2)nc2ccccc12` (centres undefined) is 948 s; for `O=C(NC1CC1)c1c2c(nc3ccc(F)cc13)CCCC2` it is 610 s; for `CC(C)Cn1cc(S(=O)(=O)Nc2cc(F)cc(F)c2)c2cccnc21` it is 994 s.

Take `COCCCNC(=O)C1CCCN(c2cnc3nccnc3c2)C1` (centres undefined): the RP-LC retention time came to 602 s. `O=C(Nc1nc2ccc([N+](=O)[O-])cc2s1)c1ccc(S(=O)(=O)N2CCCCC2)cc1` had an RP-LC retention time of 1020 s.

As for `CCCCC(=O)N1c2nc(-c3ccc(F)cc3)nn2C2(CCCCC2)[C@@H]2CCCC[C@@H]21`, the RP-LC retention time amounted to 1210 s. The figure for `CCN(CC)CCOCCOC(=O)C(CC)(CC)c1ccccc1` is 763 s. The figure for `COc1ccc(C2=Nc3ccccc3N(CC(=O)Nc3ccc4c(c3)OCO4)C(=O)C2)cc1` is 895 s. Compound `CCN(CC)S(=O)(=O)c1ccc2c(c1)CC(C(=O)NCCN1CCCCCC1)N2C(C)=O` (centres undefined) gave an RP-LC retention time of 631 s. The compound `CC1=C(C(=O)Nc2ccc(Cl)cc2C(=O)NC(C)c2ccccc2)SCCO1` (centres undefined) yielded an RP-LC retention time of 1190 s.

For the compound `CCCN(CC1CCOC1)C(=O)Nc1cccc(Cl)c1` (centres undefined), the RP-LC retention time worked out at 827 s. The figure for `COc1cc(-c2nc(Cn3ccn4nc(-c5ccccc5)cc4c3=O)c(C)o2)cc(OC)c1OC` is 990 s; for `CC(C)c1ccc(NC(=O)Cn2cccc2-c2nc(-c3ccc4c(c3)OCO4)no2)cc1` it is 1220 s.

`CCN1CCN(C(=O)C2CCN(S(=O)(=O)c3cc(C(=O)N4CCCC4)n(C)c3)CC2)CC1` returned an RP-LC retention time of 567 s.

For `COc1ccc(-c2nnc(COc3cccc(NC(=O)c4ccc(C)s4)c3)o2)cc1`, the RP-LC retention time came out at 988 s.

For `COC(=O)c1cnc2nc(-c3ccccc3Cl)nn2c1C`, the RP-LC retention time was 860 s. The figure for `O=C(Nc1nc2c(s1)CN(C(=O)c1cc(C3CC3)on1)CC2)c1ccco1` is 710 s; for `CCN(CC)S(=O)(=O)c1cc(-c2nnc(-c3ccc(C)cc3)o2)ccc1Cl` it is 1190 s; for `COc1cccc(CNC(=O)N2c3ccccc3CC2c2nc(C(C)C)no2)c1` (centres undefined) it is 1000 s.

In turn, `Cc1nnc(N2CCCC(C(=O)NCc3ccccn3)C2)c2nn(-c3ccccc3)c(C)c12` (centres undefined) registered an RP-LC retention time of 566 s. The figure for `CN(Cc1ccccc1)C(=O)c1ccc(-c2cccs2)nc1` is 920 s; for `O=S(=O)(c1ccccc1Br)N1CCC(c2noc(-c3ccccc3)n2)CC1` it is 1160 s. Consider `CCCCn1cc(S(=O)(=O)NCc2cccc(Cl)c2)c2cccnc21`, for which the RP-LC retention time stood at 1020 s. Take `CCOC(=O)c1cnc(N2CCN(c3ccc(OC)cc3)CC2)c2ccccc12`: the RP-LC retention time was 1080 s. The figure for `Cc1nnc(-c2ccc(S(=O)(=O)N3CCCCCC3)o2)o1` is 834 s; for `COC(=O)c1ccccc1NC(=O)Cn1nc2n(c1=O)CCCCC2` it is 756 s.
